Source: patent US11000033B2, “Ketone or oxime compound, and herbicide” (NISSAN CHEMICAL CORPORATION, priority 2014, dated 2021)

Tests used:
Assay type in all cases: in vivo
[1] = tested on: Echinochloa oryzacola Vasing.; assay: Test Example 1: herbicidal activity, application before weed generation in submerged conditions (symbol A); settings: application herbicide amount 320 g/ha
In short: (§1)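 Paddy pre-emergence test. Formulated emulsion, water-diluted to a predetermined rate, is applied to floodwater on sowing day; rice transplanted at 2.5 leaves. Effect read at 3 weeks on a 0–5 herbicidal-ratio scale.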

Scirpus juncoides = assay: Test Example 1: herbicidal activity, application before weed generation in submerged conditions (symbol B); settings: application herbicide amount 320 g/ha
In short: as §1

Monochoria vaginalis = assay: Test Example 1: herbicidal activity, application before weed generation in submerged conditions (symbol C); settings: application herbicide amount 320 g/ha
In short: as §1

Cyperus difformis = assay: Test Example 3: herbicidal effect by foliage application, Wagner pot (symbol E); settings: application herbicide amount 320 g/ha
In short: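 Scoring took place 3 weeks after application, using fixed criteria. Plants had been raised from seed for 14 days at 25 to 30 °C in submerged alluvial soil before a diluted emulsion of the test compound was sprayed uniformly on the leaves.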

[2] = tested on: directly sowed rice plant; assay: Test Example 3: effect on crop by foliage application, Wagner pot (symbol b); settings: application herbicide amount 320 g/ha
In short: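 Steps: fill a 1/10000-are Wagner pot with alluvial soil; add water and mix to submerge at 0.1–0.5 cm depth; sow rice plus Echinochloa crus-galli var. crus-galli, Leptochloa chinensis and Cyperus difformis; grow in a 25–30 °C greenhouse.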

[3] = tested on: Echinochloa crus-galli var. crus-galli; assay: Test Example 4: herbicidal effect by soil treatment (symbol H); settings: 320 g/ha
In short: (§2)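 Seeds were sown in sterilized diluvial soil, covered with about 1.5 cm of soil, and the soil surface was sprayed with a water-diluted emulsion of the compound at a predetermined rate. Plants grew in a greenhouse at 25° C. to 30° C.; effects were scored visually 3 weeks after application.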

Amaranthus retroflexus [4] = assay: Test Example 4: herbicidal effect by soil treatment (symbol N); settings: 320 g/ha
In short: as §2

Stellaria media = assay: Test Example 4: herbicidal effect by soil treatment (symbol P); settings: 320 g/ha
In short: as §2

corn = assay: Test Example 4: effect on crop by soil treatment (symbol c); settings: 320 g/ha
In short: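 The test used sterilized diluvial soil. Seed was set down in spots and overlaid with about 1.5 cm of soil before growth in a greenhouse kept at 25° C. to 30° C.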

rice = assay: Test Example 4: effect on crop by soil treatment (symbol b); settings: 320 g/ha
In short: (§3)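 Grown at 25° C. to 30° C. in a greenhouse, the crops came from seed sown spot-wise in sterilized diluvial soil under roughly 1.5 cm of covering soil.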

rapeseed [5] = assay: Test Example 4: effect on crop by soil treatment (symbol g); settings: 320 g/ha
In short: as §3

Setaria viridis = assay: Test Example 5: herbicidal effect by foliage application, plastic box (symbol G); settings: 320 g/ha, 3 weeks after application
In short: (§4)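 Sowing in sterilized diluvial soil, 14 days' greenhouse growth at 25° C. to 30° C., then uniform small-sprayer foliar application of aqueous emulsion dilution; plants scored three weeks afterwards.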

[6] = tested on: Echinochloa crus-galli var. crus-galli; assay: Test Example 5: herbicidal effect by foliage application, plastic box (symbol H); settings: 320 g/ha, 3 weeks after application
In short: as §4

Amaranthus retroflexus [7] = assay: Test Example 5: herbicidal effect by foliage application, plastic box (symbol N); settings: 320 g/ha, 3 weeks after application
In short: as §4

beet = assay: Test Example 5: effect on crop by foliage application, plastic box (symbol f); settings: 320 g/ha, 3 weeks after application
In short: (§5)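 Greenhouse culture at 25° C. to 30° C. followed spot-like sowing into sterilized diluvial soil, with seed covered by roughly 1.5 cm of soil.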

rapeseed [8] = assay: Test Example 5: effect on crop by foliage application, plastic box (symbol g); settings: 320 g/ha, 3 weeks after application
In short: as §5

Row | Structure (SMILES) | Herbicidal effect grade, A: Echinochloa oryzacola Vasing. [1] | Herbicidal effect grade, B: Scirpus juncoides (Scirpus juncoides) | Herbicidal effect grade, C: Monochoria vaginalis (Monochoria vaginalis) | herbicidal effect on E, grade 0-5 (Cyperus difformis) | effect on crop b (directly sowed rice plant), grade 0-5 [2] | H: Echinochloa crus-galli var. crus-galli, herbicidal effect grade [3] | N: Amaranthus retroflexus, herbicidal effect grade (Amaranthus retroflexus [4]) | P: Stellaria media, herbicidal effect grade (Stellaria media) | c: corn, effect grade on crop (corn) | b: directly sowed rice plant, effect grade on crop (rice) | g: rapeseed, effect grade on crop (rapeseed [5]) | G: Setaria viridis, herbicidal effect (criteria 0-5) (Setaria viridis) | H: Echinochloa crus-galli var. crus-galli, herbicidal effect (criteria 0-5) [6] | N: Amaranthus retroflexus, herbicidal effect (criteria 0-5) (Amaranthus retroflexus [7]) | f: beet, effect on crop (criteria 0-5) (beet) | g: rapeseed, effect on crop (criteria 0-5) (rapeseed [8])
1 | CC(CC1CC(O)=C(c2c(C)cc(C)cc2C)C1=O)=NOCC1CC1(F)F (centres unmarked) [1-109] | 5 (Herbicidal ratio of 90% or more (almost completely withered)) | 5 (Herbicidal ratio of 90% or more (almost completely withered)) | 3 (Herbicidal ratio of 40% or higher and lower than 70%) | 5 (Herbicidal ratio of 90% or more (almost completely withered)) | 5 (Herbicidal ratio of 90% or more (almost completely withered)) | 5 (Herbicidal ratio of 90% or more (almost completely withered)) | 3 (Herbicidal ratio of 40% or higher and lower than 70%) | 0 (Herbicidal ratio of 5% or lower (almost no effect)) | 1 (Herbicidal ratio of 5% or higher and lower than 20%) | 5 (Herbicidal ratio of 90% or more (almost completely withered)) | 4 (Herbicidal ratio of 70% or higher and lower than 90%) | 5 (Herbicidal ratio of 90% or more (almost completely withered)) | 5 (Herbicidal ratio of 90% or more (almost completely withered)) | 0 (Herbicidal ratio of 5% or lower (almost no effect)) | 0 (Herbicidal ratio of 5% or lower (almost no effect)) | 4 (Herbicidal ratio of 70% or higher and lower than 90%)
2 | CC(CC1CC(O)=C(c2c(C)cc(C)cc2C)C1=O)=NOCCS(C)(=O)=O (centres unmarked) [1-110] | 3 (Herbicidal ratio of 40% or higher and lower than 70%) | 0 (Herbicidal ratio of 5% or lower (almost no effect)) | 0 (Herbicidal ratio of 5% or lower (almost no effect)) | 5 (Herbicidal ratio of 90% or more (almost completely withered)) | 5 (Herbicidal ratio of 90% or more (almost completely withered)) | 5 (Herbicidal ratio of 90% or more (almost completely withered)) | 0 (Herbicidal ratio of 5% or lower (almost no effect)) | 0 (Herbicidal ratio of 5% or lower (almost no effect)) | 4 (Herbicidal ratio of 70% or higher and lower than 90%) | 5 (Herbicidal ratio of 90% or more (almost completely withered)) | 1 (Herbicidal ratio of 5% or higher and lower than 20%) | 5 (Herbicidal ratio of 90% or more (almost completely withered)) | 5 (Herbicidal ratio of 90% or more (almost completely withered)) | 0 (Herbicidal ratio of 5% or lower (almost no effect)) | 0 (Herbicidal ratio of 5% or lower (almost no effect)) | 5 (Herbicidal ratio of 90% or more (almost completely withered))
3 | CC(CC1CC(O)=C(c2c(C)cc(C)cc2C)C1=O)=NOCC1OCCO1 (centres unmarked) [1-111] | 5 (Herbicidal ratio of 90% or more (almost completely withered)) | 2 (Herbicidal ratio of 20% or higher and lower than 40%) | 1 (Herbicidal ratio of 5% or higher and lower than 20%) | 5 (Herbicidal ratio of 90% or more (almost completely withered)) | 5 (Herbicidal ratio of 90% or more (almost completely withered)) | 5 (Herbicidal ratio of 90% or more (almost completely withered)) | 0 (Herbicidal ratio of 5% or lower (almost no effect)) | 0 (Herbicidal ratio of 5% or lower (almost no effect)) | 1 (Herbicidal ratio of 5% or higher and lower than 20%) | 5 (Herbicidal ratio of 90% or more (almost completely withered)) | 4 (Herbicidal ratio of 70% or higher and lower than 90%) | 5 (Herbicidal ratio of 90% or more (almost completely withered)) | 5 (Herbicidal ratio of 90% or more (almost completely withered)) | 0 (Herbicidal ratio of 5% or lower (almost no effect)) | 0 (Herbicidal ratio of 5% or lower (almost no effect)) | 5 (Herbicidal ratio of 90% or more (almost completely withered))
4 | COc1ccc(CON=C(C)CC2CC(O)=C(c3c(C)cc(C)cc3C)C2=O)cc1 (centres unmarked) [1-112] | 5 (Herbicidal ratio of 90% or more (almost completely withered)) | 5 (Herbicidal ratio of 90% or more (almost completely withered)) | 5 (Herbicidal ratio of 90% or more (almost completely withered)) | 5 (Herbicidal ratio of 90% or more (almost completely withered)) | 5 (Herbicidal ratio of 90% or more (almost completely withered)) | 4 (Herbicidal ratio of 70% or higher and lower than 90%) | 0 (Herbicidal ratio of 5% or lower (almost no effect)) | 0 (Herbicidal ratio of 5% or lower (almost no effect)) | 1 (Herbicidal ratio of 5% or higher and lower than 20%) | 5 (Herbicidal ratio of 90% or more (almost completely withered)) | 0 (Herbicidal ratio of 5% or lower (almost no effect)) | 4 (Herbicidal ratio of 70% or higher and lower than 90%) | 5 (Herbicidal ratio of 90% or more (almost completely withered)) | 0 (Herbicidal ratio of 5% or lower (almost no effect)) | 0 (Herbicidal ratio of 5% or lower (almost no effect)) | 4 (Herbicidal ratio of 70% or higher and lower than 90%)
5 | CC(CC1CC(O)=C(c2c(C)cc(C)cc2C)C1=O)=NOCc1cccc(Cl)c1 (centres unmarked) [1-114] | 5 (Herbicidal ratio of 90% or more (almost completely withered)) | 5 (Herbicidal ratio of 90% or more (almost completely withered)) | 5 (Herbicidal ratio of 90% or more (almost completely withered)) | 2 (Herbicidal ratio of 20% or higher and lower than 40%) | 5 (Herbicidal ratio of 90% or more (almost completely withered)) | 0 (Herbicidal ratio of 5% or lower (almost no effect)) | 0 (Herbicidal ratio of 5% or lower (almost no effect)) | 0 (Herbicidal ratio of 5% or lower (almost no effect)) | 0 (Herbicidal ratio of 5% or lower (almost no effect)) | 3 (Herbicidal ratio of 40% or higher and lower than 70%) | 1 (Herbicidal ratio of 5% or higher and lower than 20%) | 5 (Herbicidal ratio of 90% or more (almost completely withered)) | 5 (Herbicidal ratio of 90% or more (almost completely withered)) | 1 (Herbicidal ratio of 5% or higher and lower than 20%) | 0 (Herbicidal ratio of 5% or lower (almost no effect)) | 4 (Herbicidal ratio of 70% or higher and lower than 90%)
